{"source": "patent US20250353841A1", "about": "(BIOGEN MA INC., priority 2022, published 2025)", "tested_on": "mutant Huntington (HTT) protein", "test": "HTT Mutant HTRF iPSC assay (mHTT protein lowering)", "format": "cell-based", "details": "human iPSC derived from a HTT patient with a poly-Q49 mutation"}
{"compound": "Cc1cn2nc(-c3cc(F)c4nc(NC(=O)[C@H]5[C@@H]6CN(C)C[C@@H]65)cn4c3)cc(C)c2n1", "note": "[Compound 262, (1R,5S,6r)-N-(6-(2,8-dimethylimidazo[1,2-b]pyridazin-6-yl)-8-fluoroimidazo[1,2-a]pyridin-2-yl)-3-methyl-3-azabicyclo[3.1.0]hexane-6-carboxamide]", "values": [{"measurement": "IC50", "value": "< 100", "unit": "nM"}]}
{"compound": "Cc1cn2nc(-c3cc(F)c4nc(NC(=O)C5CN(C6CCC6)C5)cn4c3)cc(C)c2n1", "note": "[Compound 263, 1-cyclobutyl-N-(6-(2,8-dimethylimidazo[1,2-b]pyridazin-6-yl)-8-fluoroimidazo[1,2-a]pyridin-2-yl)azetidine-3-carboxamide]", "values": [{"measurement": "IC50", "value": "< 100", "unit": "nM"}]}
{"compound": "Cc1cn2nc(-c3cc(F)c4nc(NC(=O)C5CN(C6CC6)C5)cn4c3)cc(C)c2n1", "note": "[Compound 265, 1-cyclopropyl-N-(6-(2,8-dimethylimidazo[1,2-b]pyridazin-6-yl)-8-fluoroimidazo[1,2-a]pyridin-2-yl)azetidine-3-carboxamide]", "values": [{"measurement": "IC50", "value": "< 100", "unit": "nM"}]}
{"compound": "Cc1cn2nc(-c3cc(F)c4nc(NC(=O)C5CN(CCF)C5)cn4c3)cc(C)c2n1", "note": "[Compound 266, N-(6-(2,8-dimethylimidazo[1,2-b]pyridazin-6-yl)-8-fluoroimidazo[1,2-a]pyridin-2-yl)-1-(2-fluoroethyl)azetidine-3-carboxamide]", "values": [{"measurement": "IC50", "value": "< 100", "unit": "nM"}]}
{"compound": "Cc1cn2nc(-c3cc(F)c4nc(NC(=O)C5CN(CC(F)F)C5)cn4c3)cc(C)c2n1", "note": "[Compound 267, 1-(2,2-difluoroethyl)-N-(6-(2,8-dimethylimidazo[1,2-b]pyridazin-6-yl)-8-fluoroimidazo[1,2-a]pyridin-2-yl)azetidine-3-carboxamide]", "values": [{"measurement": "IC50", "value": "100 to 1000", "unit": "nM"}]}
{"compound": "Cc1cn2nc(-c3cc(F)c4nc(NC(=O)C5CCNC6(CC6)C5)cn4c3)cc(C)c2n1", "note": "(stereo not drawn) [Compound 268, N-(6-(2,8-dimethylimidazo[1,2-b]pyridazin-6-yl)-8-fluoroimidazo[1,2-a]pyridin-2-yl)-4-azaspiro[2.5]octane-7-carboxamide]", "values": [{"measurement": "IC50", "value": "< 100", "unit": "nM"}]}
{"compound": "Cc1cn2nc(-c3cc(F)c4nc(NC(=O)C5CCN(C)CC5)cn4c3)cc(C)c2n1", "note": "[Compound 269, N-(6-(2,8-dimethylimidazo[1,2-b]pyridazin-6-yl)-8-fluoroimidazo[1,2-a]pyridin-2-yl)-1-methylpiperidine-4-carboxamide]", "values": [{"measurement": "IC50", "value": "< 100", "unit": "nM"}]}
{"compound": "Cc1cn2nc(-c3cc(F)c4nc(NC(=O)C5(F)CNC5)cn4c3)cc(C)c2n1", "note": "[Compound 270, N-(6-(2,8-dimethylimidazo[1,2-b]pyridazin-6-yl)-8-fluoroimidazo[1,2-a]pyridin-2-yl)-3-fluoroazetidine-3-carboxamide]", "values": [{"measurement": "IC50", "value": "< 100", "unit": "nM"}]}
{"compound": "Cc1cn2nc(-c3cc(F)c4nc(NC(=O)C5CCNC6CC65)cn4c3)cc(C)c2n1", "note": "(stereo not drawn) [Compound 271, N-(6-(2,8-dimethylimidazo[1,2-b]pyridazin-6-yl)-8-fluoroimidazo[1,2-a]pyridin-2-yl)-2-azabicyclo[4.1.0] heptane-5-carboxamide]", "values": [{"measurement": "IC50", "value": "< 100", "unit": "nM"}]}
{"compound": "Cc1cn2nc(-c3cc(F)c4nc(NC(=O)CC5CCCN5)cn4c3)cc(C)c2n1", "note": "(stereo not drawn) [Compound 273, N-(6-(2,8-dimethylimidazo[1,2-b]pyridazin-6-yl)-8-fluoroimidazo[1,2-a]pyridin-2-yl)-2-(pyrrolidin-2-yl)acetamide]", "values": [{"measurement": "IC50", "value": "< 100", "unit": "nM"}]}
{"compound": "Cc1cn2nc(-c3cc(F)c4nc(NC(=O)CC5CCCCN5)cn4c3)cc(C)c2n1", "note": "(stereo not drawn) [Compound 274, N-(6-(2,8-dimethylimidazo[1,2-b]pyridazin-6-yl)-8-fluoroimidazo[1,2-a]pyridin-2-yl)-2-(piperidin-2-yl)acetamide]", "values": [{"measurement": "IC50", "value": "< 100", "unit": "nM"}]}
{"compound": "Cc1cn2nc(-c3cc(F)c4nc(NC(=O)CN5CCCCC5)cn4c3)cc(C)c2n1", "note": "[Compound 275, N-(6-(2,8-dimethylimidazo[1,2-b]pyridazin-6-yl)-8-fluoroimidazo[1,2-a]pyridin-2-yl)-2-(piperidin-1-yl)acetamide]", "values": [{"measurement": "IC50", "value": "< 100", "unit": "nM"}]}
{"compound": "Cc1cn2nc(-c3cc(F)c4nc(NC(=O)C5CC6(CNC6)C5)cn4c3)cc(C)c2n1", "note": "[Compound 276]", "values": [{"measurement": "IC50", "value": "100 to 1000", "unit": "nM"}]}
{"compound": "Cc1cn2nc(-c3cc(F)c4nc(NC(=O)CC5CNC5)cn4c3)cc(C)c2n1", "note": "[Compound 281, 2-(azetidin-3-yl)-N-(6-(2,8-dimethylimidazo[1,2-b]pyridazin-6-yl)-8-fluoroimidazo[1,2-a]pyridin-2-yl)acetamide]", "values": [{"measurement": "IC50", "value": "< 100", "unit": "nM"}]}
{"compound": "Cc1cn2nc(-c3cc(F)c4nc(NC(=O)C5(C)CN(C6CC6)C5)cn4c3)cc(C)c2n1", "note": "[Compound 282, 1-cyclopropyl-N-(6-(2,8-dimethylimidazo[1,2-b]pyridazin-6-yl)-8-fluoroimidazo[1,2-a]pyridin-2-yl)-3-methylazetidine-3-carboxamide]", "values": [{"measurement": "IC50", "value": "< 100", "unit": "nM"}]}
{"compound": "Cc1cn2nc(-c3cc(F)c4nc(NC(=O)CC5CCNCC5)cn4c3)cc(C)c2n1", "note": "[Compound 284, N-(6-(2,8-dimethylimidazo[1,2-b]pyridazin-6-yl)-8-fluoroimidazo[1,2-a]pyridin-2-yl)-2-(piperidin-4-yl)acetamide]", "values": [{"measurement": "IC50", "value": "100 to 1000", "unit": "nM"}]}
{"compound": "Cc1cn2nc(-c3cc(F)c4nc(NC(=O)C5CN(C6CC6)C5(C)C)cn4c3)cc(C)c2n1", "note": "(stereo not drawn) [Compound 285, 1-cyclopropyl-N-(6-(2,8-dimethylimidazo[1,2-b]pyridazin-6-yl)-8-fluoroimidazo[1,2-a]pyridin-2-yl)-2,2-dimethylazetidine-3-carboxamide]", "values": [{"measurement": "IC50", "value": "100 to 1000", "unit": "nM"}]}
{"compound": "Cc1cn2nc(-c3cc(F)c4nc(NC(=O)[C@H]5C[C@H](N(C)C)C5)cn4c3)cc(C)c2n1", "note": "[Compound 288, (1r,3r)-3-(dimethylamino)-N-(6-(2,8-dimethylimidazo[1,2-b]pyridazin-6-yl)-8-fluoroimidazo[1,2-a]pyridin-2-yl)cyclobutane-1-carboxamide]", "values": [{"measurement": "IC50", "value": "< 100", "unit": "nM"}]}
{"compound": "Cc1cn2nc(-c3cc(F)c4nc(NC(=O)[C@H]5C[C@@H](N(C)C)C5)cn4c3)cc(C)c2n1", "note": "[Compound 289, (1s,3s)-3-(dimethylamino)-N-(6-(2,8-dimethylimidazo[1,2-b]pyridazin-6-yl)-8-fluoroimidazo[1,2-a]pyridin-2-yl)cyclobutane-1-carboxamide]", "values": [{"measurement": "IC50", "value": "< 100", "unit": "nM"}]}
{"compound": "Cc1cn2nc(-c3cc(F)c4nc(NC(=O)C5CN(C(C)C)C5)cn4c3)cc(C(F)F)c2n1", "note": "[Compound 290, N-[6-[8-(difluoromethyl)-2-methyl-imidazo[1,2-b]pyridazin-6-yl]-8-fluoro-imidazo[1,2-a]pyridin-2-yl]-1-isopropyl-azetidine-3-carboxamide]", "values": [{"measurement": "IC50", "value": "< 100", "unit": "nM"}]}
{"compound": "CC(C)N1CC(C(=O)Nc2cn3cc(-c4cc(F)c5nn(C)cc5c4)cc(F)c3n2)C1", "note": "[Compound 291, N-(8-fluoro-6-(7-fluoro-2-methyl-2H-indazol-5-yl)imidazo[1,2-a]pyridin-2-yl)-1-isopropylazetidine-3-carboxamide]", "values": [{"measurement": "IC50", "value": "100 to 1000", "unit": "nM"}]}
{"compound": "Cc1cc(-c2cc(F)c3nc(NC(=O)C4CN(C(C)C)C4)cn3c2)nc2cn(C)nc12", "note": "[Compound 292, N-(6-(2,7-dimethyl-2H-pyrazolo[4,3-b]pyridin-5-yl)-8-fluoroimidazo[1,2-a]pyridin-2-yl)-1-isopropylazetidine-3-carboxamide]", "values": [{"measurement": "IC50", "value": "< 100", "unit": "nM"}]}
{"compound": "Cc1cn2nc(-c3cc(F)c4nc(NC(=O)C5CNC5)cn4c3)cc(C)c2n1", "note": "[Compound 294, N-[6-(2,8-dimethylimidazo[1,2-b]pyridazin-6-yl)-8-fluoro-imidazo[1,2-a]pyridin-2-yl]azetidine-3-carboxamide]", "values": [{"measurement": "IC50", "value": "< 100", "unit": "nM"}]}
{"compound": "Cc1cn2nc(-c3cc(F)c4nc(NC(=O)C5CN(C(C)C)C5)cn4c3)cc2c(C)n1", "note": "[Compound 295, N-(6-(4,6-dimethylpyrazolo[1,5-a]pyrazin-2-yl)-8-fluoroimidazo[1,2-a]pyridin-2-yl)-1-isopropylazetidine-3-carboxamide]", "values": [{"measurement": "IC50", "value": "< 100", "unit": "nM"}]}
{"compound": "COc1cc(-c2cc(F)c3nc(NC(=O)C4CN(C(C)C)C4)cn3c2)nn2nc(C)nc12", "note": "[Compound 296, N-(8-fluoro-6-(8-methoxy-2-methyl-[1,2,4]triazolo[1,5-b]pyridazin-6-yl)imidazo[1,2-a]pyridin-2-yl)-1-isopropylazetidine-3-carboxamide]", "values": [{"measurement": "IC50", "value": "< 100", "unit": "nM"}]}
{"compound": "Cc1cn2nc(-c3cc(F)c4nc(NC(=O)C5CCN(C)CC5)nn4c3)cc(C)c2n1", "note": "[Compound 317, N-(6-(2,8-dimethylimidazo[1,2-b]pyridazin-6-yl)-8-fluoro-[1,2,4]triazolo[1,5-a]pyridin-2-yl)-1-methylpiperidine-4-carboxamide]", "values": [{"measurement": "IC50", "value": "100 to 1000", "unit": "nM"}]}
{"compound": "Cc1cn2nc(-c3cc(F)c4nc(NC(=O)C5CC56CNC6)nn4c3)cc(C)c2n1", "note": "(stereo not drawn) [Compound 318]", "values": [{"measurement": "IC50", "value": "1000 to 9000", "unit": "nM"}]}
{"compound": "Cc1cn2nc(-c3cc(F)c4nc(NC(=O)C5CNCC5(C)C)nn4c3)cc(C)c2n1", "note": "(stereo not drawn) [Compound 319, N-(6-(2,8-dimethylimidazo[1,2-b]pyridazin-6-yl)-8-fluoro-[1,2,4]triazolo[1,5-a]pyridin-2-yl)-4,4-dimethylpyrrolidine-3-carboxamide]", "values": [{"measurement": "IC50", "value": "1000 to 9000", "unit": "nM"}]}
{"compound": "Cc1cn2nc(-c3cc(F)c4nc(NC(=O)C56CNC(C5)C6)nn4c3)cc(C)c2n1", "note": "[Compound 320, N-(6-(2,8-dimethylimidazo[1,2-b]pyridazin-6-yl)-8-fluoro-[1,2,4]triazolo[1,5-a]pyridin-2-yl)-2-azabicyclo[2.1.1]hexane-4-carboxamide]", "values": [{"measurement": "IC50", "value": "1000 to 9000", "unit": "nM"}]}
{"compound": "Cc1cn2nc(-c3cc(F)c4nc(NC(=O)C5CCCCNC5)nn4c3)cc(C)c2n1", "note": "(stereo not drawn) [Compound 321, N-(6-(2,8-dimethylimidazo[1,2-b]pyridazin-6-yl)-8-fluoro-[1,2,4]triazolo[1,5-a]pyridin-2-yl)azepane-3-carboxamide]", "values": [{"measurement": "IC50", "value": "100 to 1000", "unit": "nM"}]}
{"compound": "Cc1cn2nc(-c3cc(F)c4nc(NC(=O)C5CCNC(C)C5)nn4c3)cc(C)c2n1", "note": "(stereo not drawn) [Compound 322, N-(6-(2,8-dimethylimidazo[1,2-b]pyridazin-6-yl)-8-fluoro-[1,2,4]triazolo[1,5-a]pyridin-2-yl)-2-methylpiperidine-4-carboxamide]", "values": [{"measurement": "IC50", "value": "100 to 1000", "unit": "nM"}]}
{"compound": "Cc1cn2nc(-c3cc(F)c4nc(NC(=O)C5CCNC56CC6)nn4c3)cc(C)c2n1", "note": "(stereo not drawn) [Compound 323, N-(6-(2,8-dimethylimidazo[1,2-b]pyridazin-6-yl)-8-fluoro-[1,2,4]triazolo[1,5-a]pyridin-2-yl)-4-azaspiro[2.4]heptane-7-carboxamide]", "values": [{"measurement": "IC50", "value": "100 to 1000", "unit": "nM"}]}
{"compound": "Cc1cn2nc(-c3cc(F)c4nc(NC(=O)C5CN(C(C)C)C5)nn4c3)cc(C)c2n1", "note": "[Compound 324, N-[6-(2,8-dimethylimidazo[1,2-b]pyridazin-6-yl)-8-fluoro-[1,2,4]triazolo[1,5-a]pyridin-2-yl]-1-isopropyl-azetidine-3-carboxamide]", "values": [{"measurement": "IC50", "value": "1000 to 9000", "unit": "nM"}]}
